US20090137579A1, “Mesylate salt of an IKK inhibitor” (Millennium Pharmaceuticals, Inc., priority 2007, published 2009)
Values after ≈ are worked out from the molar mass of the structure shown. Counter-ions that a name gives are not always drawn. Like-named read-outs stand apart in the source and are kept apart here.

Assays:
[1] = Water solubility (equilibrium solubility at ambient temperature); format: physicochemical
Description: The water solubility of Mesylate Salt Form 1 was measured at ambient temperature. Table 6 is a summary of the equilibrium solubility.

[2] = Gravimetric vapor sorption (GVS), hygroscopicity; format: physicochemical
Description: Gravimetric vapor sorption (GVS) data are collected using a SGA-100 Water Vapor Sorption Analyzer from VTI Corporation. Sample sizes are typically 10 mg. A moisture adsorption/desorption isotherm is recorded by subjecting samples to a series of relative humidity (RH) steps.

SMILES | solubility ([1]; in water, crystalline free base, read-out: solubility) [mg/mL] | solubility ([1]; water, free base, read-out: intrinsic solubility) [mg/mL] | solubility ([1]; pH 2.52, thermodynamic from solid, water, ambient temperature, equilibrium solubility, read-out: Solubility) [mg/mL] | pH ([1]; pH printed beside the equilibrium water solubility) | solubility ([1]; thermodynamic from solid, in water, crystalline Form 1, read-out: solubility) [mg/mL] | uptake (vapor sorption) ([2]; at 70% relative humidity (RH)) [%] | uptake (vapor sorption) ([2]; at 90% RH) [%]
C[C@@H]1CN(C(=O)CN2CC(C)(C)OC[C@H]2C(=O)Nc2cc(Cl)cc3c2[nH]c2cnccc23)C[C@H](C)O1 [free base, (S)—N-(6-chloro-9H-pyrido[3,4-b]indol-8-yl)-4-(2-((2S,6R)-2,6-dimethylmorpholino)-2-oxoethyl)-6,6-dimethylmorpholine-3-carboxamide] | ~0.01 (≈ 19.5 µM) | ~0.01 (≈ 19.5 µM) |  |  |  |  | 
C[C@@H]1CN(C(=O)CN2CC(C)(C)OC[C@H]2C(=O)Nc2cc(Cl)cc3c2[nH]c2cnccc23)C[C@H](C)O1 [Mesylate Form 1, (S)—N-(6-chloro-9H-pyrido[3,4-b]indol-8-yl)-4-(2-((2S,6R)-2,6-dimethylmorpholino)-2-oxoethyl)-6,6-dimethylmorpholine-3-carboxamide Mesylate Form 1] |  |  | > 360 | 2.52 | > 360 | 1.5 | 3.4
